From ChEMBL document CHEMBL6096696, “Structure-Activity Relationship Studies of an Autophagy Inhibitor That Targets the ATG14L-Beclin1 Protein-Protein Interaction Reveal Modifications That Improve Potency and Solubility and Maintain Selectivity” (J Med Chem, 2025) come the findings set out here.

≈ marks a conversion by molar mass, not a printed value.

The nature of data set [1]: Kinetic aqueous solubility of compound in PBS at pH 7.4 by absorbance based analysis. The settings on record: read-out: Kinetic_solubility. The class given is physicochemical.
Data set [2] concerns HEK293T. In words: Inhibition of C-terminal Nano-luc tagged ATG14L/C-terminal Halo-tagged Beclin 1 (unknown origin) PPI tranfected with HEK293T cells using […] at 100 uM incubated for 24 hrs by […] assay relative to control. The class given is cell-based. Particulars: Homo sapiens, values are per cent of control.
Data set [3] has as its system HEK293T. Description: Inhibition of C-terminal Nano-luc tagged UVRAG/C-terminal Halo-tagged Beclin 1 (unknown origin) PPI tranfected with HEK293T cells using […] at 100 uM incubated for 24 hrs by […] assay relative to control. The class given is cell-based. Particulars: Homo sapiens, values are per cent of control.
Data set [4] can be described thus: Selectivity ratio of inhibition of C-terminal Nano-luc tagged UVRAG/C-terminal Halo-tagged Beclin 1 (unknown origin) PPI tranfected with HEK293T cells to inhibition of C-terminal Nano-luc tagged ATG14L/C-terminal Halo-tagged Beclin 1 (unknown origin) PPI tranfected with HEK293T cells.

Consider `CCCN1C(=O)COc2ccc(NS(=O)(=O)c3cccc(C)c3C)cc21`, for which the solubility kinetic in data set [1] was greater than 100 µM. In data set [2], this compound returned a residual binding, % of control of 83.2%.
On to `COc1ccccc1-c1ccc2c(c1)N(Cc1noc(C3CCC3)n1)C(=O)CO2`, for which, in data set [1], the solubility kinetic was greater than 100 µM. Further, the results for the residual binding, % of control in data set [3] and in data set [2] were 104% and 98.3%, respectively. The Selectivity ratio in data set [4] stood at 1.06.
`CCCN1C(=O)COc2ccc(NS(=O)(=O)c3cccc(C(F)(F)F)c3)cc21`: in data set [1], the solubility kinetic was greater than 100 µM. The compound further showed a residual binding, % of control in data set [2] of 80%.
Consider `O=C1COc2ccc(-c3ccccc3)cc2N1Cc1noc(C2CCC2)n1`, for which the solubility kinetic in data set [1] is greater than 100 µM. The results for the residual binding, % of control in data set [3] and in data set [2] were 105% and 98.7%, respectively. For the same compound, the Selectivity ratio in data set [4] turned out to be 1.06.
Regarding `CCCCN1C(=O)COc2ccc(S(=O)(=O)Nc3cccc(C)c3C)cc21`, in data set [1], the solubility kinetic was greater than 100 µM. The residual binding, % of control in data set [2] came to 110%.
The corresponding values for `CCCN1C(=O)COc2ccc(NC(=O)c3cccc(C)c3C)cc21` are greater than 100 µM and 92%.
Regarding `CCCN1C(=O)COc2ccc(NS(=O)(=O)c3ccc(Cl)cc3Cl)cc21`, in data set [1], the solubility kinetic was greater than 100 µM. In addition, the residual binding, % of control in data set [2] worked out at 101%.
For `CCCN1C(=O)COc2ccc(NS(=O)(=O)c3cc(OC)ccc3OC)cc21` the same measures were greater than 100 µM and 103%.
The corresponding values for `CCCN1C(=O)COc2ccc(NC(=O)Cc3ccccc3)cc21` are greater than 100 µM and 127%.
As to `CCCN1C(=O)COc2ccc(NS(=O)(=O)c3cccc(OC)c3)cc21`, the solubility kinetic in data set [1] is greater than 100 µM. This compound came in with a residual binding, % of control in data set [2] of 99.8%.
For `CCCN1C(=O)COc2ccc(NS(=O)(=O)c3ccc(F)cc3C)cc21` the same measures were greater than 100 µM and 99.8%.
For `CCCN1C(=O)COc2ccc(NS(=O)(=O)c3ccccc3)cc21` the same measures were greater than 100 µM and 89.2%.
As for `CC(C)c1cccc(-c2ccc3c(c2)N(Cc2noc(C4CCC4)n2)C(=O)CO3)c1`, the solubility kinetic in data set [1] is greater than 100 µM. Besides, the figures for the residual binding, % of control in data set [3] and in data set [2] were 99.1% and 81.6%, respectively. The Selectivity ratio in data set [4] turned out to be 1.21.
For `CC(C)c1ccccc1Nc1ccc2c(c1)N(Cc1noc(C3CCC3)n1)C(=O)CO2` the same measures were greater than 100 µM, 105%, 82.4% and 1.27.
With `Cc1cccc(NS(=O)(=O)c2ccc3c(c2)OCC(=O)N3CCc2ccccc2)c1C`, in data set [1], the solubility kinetic was greater than 100 µM. In data set [2], this compound gave a residual binding, % of control of 103%.
Regarding `Cc1cccc(Nc2ccc3c(c2)N(Cc2noc(C4CCC4)n2)C(=O)CO3)c1C`, the solubility kinetic in data set [1] is greater than 100 µM. In addition, the residual binding, % of control in data set [3] was determined as 119%; in data set [2] it was 79.3%. Besides, in data set [4], the Selectivity ratio was found to be 1.5.
The corresponding values for `O=C1COc2ccc(-c3ccccc3F)cc2N1Cc1noc(C2CCC2)n1` are greater than 100 µM, 98%, 79% and 1.24.
As for `CCCN1C(=O)COc2ccc(S(=O)(=O)Nc3ccccc3)cc21`, the solubility kinetic in data set [1] was greater than 100 µM. This compound also displayed a residual binding, % of control in data set [2] of 134%.
The corresponding values for `CCCN1C(=O)COc2ccc(S(=O)(=O)N3CCCCC3)cc21` are greater than 100 µM and 109%.
In the case of `CCCN1C(=O)COc2ccc(S(=O)(=O)Nc3ccccc3F)cc21`, the solubility kinetic in data set [1] is greater than 100 µM. This compound showed a residual binding, % of control in data set [2] of 147%.
As to `CCCN1C(=O)COc2ccc(S(=O)(=O)Nc3cccc(N4CCOCC4)c3)cc21`, the solubility kinetic in data set [1] is greater than 100 µM. Moreover, the residual binding, % of control in data set [2] is 108%.
Turning to `Cc1cccc(NS(=O)(=O)c2ccc3c(c2)OCC(=O)N3Cc2ccco2)c1C`, in data set [1], the solubility kinetic was greater than 100 µM. The residual binding, % of control in data set [2] was determined as 109%.
Take `O=C1COc2ccc(-c3cccc(F)c3)cc2N1Cc1noc(C2CCC2)n1`: the solubility kinetic in data set [1] worked out at 50 µM (≈ 19 µg/mL). Besides, the residual binding, % of control in data set [3] was found to be 101%; in data set [2], 90.3%. Also, in data set [4], the Selectivity ratio is 1.11.
For `CCCN1C(=O)COc2ccc(S(=O)(=O)Nc3c(C)cccc3C)cc21`, the solubility kinetic in data set [1] was greater than 100 µM. For the same compound, in data set [2], the residual binding, % of control turned out to be 105%.
For `CCCN1C(=O)COc2ccc(S(=O)(=O)Nc3cc(OC)ccc3OC)cc21` the same measures were greater than 100 µM and 107%.
On to `Cc1cccc(Nc2ccc3c(c2)N(Cc2noc(C4CCC4)n2)C(=O)CO3)c1Cl`, for which, in data set [1], the solubility kinetic is 100 µM (≈ 42.5 µg/mL). For the same compound, the residual binding, % of control in data set [3] worked out at 102%; in data set [2], 89.8%. For the same compound, the Selectivity ratio in data set [4] stood at 1.13.
For `O=C1COc2ccc(-c3ccc(F)cc3F)cc2N1Cc1noc(C2CCC2)n1` the same measures were greater than 100 µM, 100%, 87.9% and 1.14.
In the case of `CCCN1C(=O)COc2ccc(NS(=O)(=O)c3ccccc3Br)cc21`, in data set [1], the solubility kinetic was greater than 100 µM. The compound further yielded a residual binding, % of control in data set [2] of 88.1%.
On to `Cc1c(Cl)cccc1Nc1ccc2c(c1)N(Cc1noc(C3CCC3)n1)C(=O)CO2`, for which, in data set [1], the solubility kinetic turned out to be 100 µM (≈ 42.5 µg/mL). In addition, the residual binding, % of control in data set [3] worked out at 118%; in data set [2], 83.9%. Also, in data set [4], the Selectivity ratio worked out at 1.4.
Consider `CCCN1C(=O)COc2ccc(NS(=O)(=O)c3c(C(C)C)cc(C(C)C)cc3C(C)C)cc21`, for which, in data set [1], the solubility kinetic was greater than 100 µM. In data set [2], this compound registered a residual binding, % of control of 59.9%.
Take `CCCN1C(=O)COc2ccc(Nc3cccc(Cl)c3C)cc21`: the solubility kinetic in data set [1] was determined as 50 µM (≈ 16.5 µg/mL). Also, the residual binding, % of control in data set [3] worked out at 104%; in data set [2], 101%. Moreover, the Selectivity ratio in data set [4] worked out at 1.02.
Consider `CCCN1C(=O)COc2ccc(NC(=O)c3ccc(Cl)cc3Cl)cc21`, for which the solubility kinetic in data set [1] amounted to 50 µM (≈ 19 µg/mL). This compound also displayed a residual binding, % of control in data set [2] of 109%.
For `CCCN1C(=O)COc2ccc(NC(=O)c3ccccc3Br)cc21`, the solubility kinetic in data set [1] is greater than 100 µM. The same compound yielded a residual binding, % of control in data set [2] of 119%.
For `Cc1cccc(NS(=O)(=O)c2ccc3c(c2)N(CC(C)O)C(=O)CO3)c1C` (centres undefined) the same measures were greater than 100 µM and 107%.
On to `Cc1cccc(-c2ccc3c(c2)N(Cc2noc(C4CCC4)n2)C(=O)CO3)c1`, for which the solubility kinetic in data set [1] is greater than 100 µM. Moreover, the residual binding, % of control was determined as 102% in data set [3] and 90.8% in data set [2]. Besides, in data set [4], the Selectivity ratio came to 1.13.
For `CCCN1C(=O)COc2ccc(Nc3cccc(C)c3C)cc21` the same measures were greater than 100 µM, 108%, 104% and 1.04.
`CCCN1C(=O)COc2ccc(NS(=O)(=O)c3cccc(C)c3)cc21`: the solubility kinetic in data set [1] was greater than 100 µM. This compound had a residual binding, % of control in data set [2] of 96.2%.
The corresponding values for `Cc1cccc(NS(=O)(=O)c2ccc3c(c2)OCC(=O)N3Cc2ccccn2)c1C` are greater than 100 µM and 112%.
As to `CCCN1C(=O)COc2ccc(S(=O)(=O)N3CCOCC3)cc21`, in data set [1], the solubility kinetic was greater than 100 µM. In addition, in data set [2], the residual binding, % of control was 110%.
For `CCCN1C(=O)COc2ccc(NS(=O)(=O)c3cccc(Br)c3)cc21` the same measures were greater than 100 µM and 101%.
Take `O=C1COc2ccc(-c3cccc(OC(F)(F)F)c3)cc2N1Cc1noc(C2CCC2)n1`: the solubility kinetic in data set [1] is greater than 100 µM. The values for the residual binding, % of control in data set [3] and in data set [2] were 110% and 105%, respectively. Also, in data set [4], the Selectivity ratio amounted to 1.05.
As to `Cc1cccc(NS(=O)(=O)c2ccc3c(c2)OCC(=O)N3Cc2ccccc2)c1C`, in data set [1], the solubility kinetic came out at 50 µM (≈ 21.1 µg/mL). Also, the residual binding, % of control in data set [2] was 105%.
As to `CCCN1C(=O)COc2ccc(NC(=O)c3cccc(Br)c3)cc21`, the solubility kinetic in data set [1] was greater than 100 µM. In data set [2], this compound showed a residual binding, % of control of 112%.
The corresponding values for `CCCN1C(=O)COc2ccc(S(=O)(=O)Nc3ccccc3Br)cc21` are greater than 100 µM and 132%.
With `CCCN1C(=O)COc2ccc(Nc3ccccc3Br)cc21`, in data set [1], the solubility kinetic was greater than 100 µM. For the same compound, the residual binding, % of control in data set [3] was determined as 108%; in data set [2], 82.9%. In addition, the Selectivity ratio in data set [4] came to 1.49.
On to `CCCN1C(=O)COc2ccc(NC(=O)c3ccccc3)cc21`, for which the solubility kinetic in data set [1] is greater than 100 µM. In data set [2], this compound returned a residual binding, % of control of 106%.
The corresponding values for `CCCN1C(=O)COc2ccc(NC(=O)c3cccc([N+](=O)[O-])c3)cc21` are greater than 100 µM and 104%.
The corresponding values for `Cc1cccc(NS(=O)(=O)c2ccc3c(c2)N(C)C(=O)CO3)c1C` are greater than 100 µM and 106%.
The corresponding values for `CCCN1C(=O)COc2ccc(S(=O)(=O)Nc3cccc(Cl)c3C)cc21` are greater than 100 µM and 131%.
Take `CCCN1C(=O)COc2ccc(S(=O)(=O)Nc3cccc(Cl)c3)cc21`: the solubility kinetic in data set [1] was greater than 100 µM. Moreover, the residual binding, % of control in data set [2] came to 145%.
With `CCCN1C(=O)COc2ccc(S(=O)(=O)NCc3ccccc3)cc21`, the solubility kinetic in data set [1] was greater than 100 µM. The same compound had a residual binding, % of control in data set [2] of 116%.
For `Cc1cccc(NS(=O)(=O)c2ccc3c(c2)N(CC2CCCCC2)C(=O)CO3)c1C` the same measures were greater than 100 µM and 106%.
